Data on one molecule can be found in US20050209232A1, “Pyridazinone ureas as antagonists of alpha4 integrins” (priority 2004, published 2005).

Broadly, the IC50 is the concentration needed to halve the response being measured.

Structures are written as SMILES.

The target in one experiment is T1, human α4β7 integrin (Homo sapiens, UniProt P13612+P26010).
T1 construct: expressed in transfected cells; host or cells: K562 cells, stably transfected
T1 sequence (P13612 34-1032): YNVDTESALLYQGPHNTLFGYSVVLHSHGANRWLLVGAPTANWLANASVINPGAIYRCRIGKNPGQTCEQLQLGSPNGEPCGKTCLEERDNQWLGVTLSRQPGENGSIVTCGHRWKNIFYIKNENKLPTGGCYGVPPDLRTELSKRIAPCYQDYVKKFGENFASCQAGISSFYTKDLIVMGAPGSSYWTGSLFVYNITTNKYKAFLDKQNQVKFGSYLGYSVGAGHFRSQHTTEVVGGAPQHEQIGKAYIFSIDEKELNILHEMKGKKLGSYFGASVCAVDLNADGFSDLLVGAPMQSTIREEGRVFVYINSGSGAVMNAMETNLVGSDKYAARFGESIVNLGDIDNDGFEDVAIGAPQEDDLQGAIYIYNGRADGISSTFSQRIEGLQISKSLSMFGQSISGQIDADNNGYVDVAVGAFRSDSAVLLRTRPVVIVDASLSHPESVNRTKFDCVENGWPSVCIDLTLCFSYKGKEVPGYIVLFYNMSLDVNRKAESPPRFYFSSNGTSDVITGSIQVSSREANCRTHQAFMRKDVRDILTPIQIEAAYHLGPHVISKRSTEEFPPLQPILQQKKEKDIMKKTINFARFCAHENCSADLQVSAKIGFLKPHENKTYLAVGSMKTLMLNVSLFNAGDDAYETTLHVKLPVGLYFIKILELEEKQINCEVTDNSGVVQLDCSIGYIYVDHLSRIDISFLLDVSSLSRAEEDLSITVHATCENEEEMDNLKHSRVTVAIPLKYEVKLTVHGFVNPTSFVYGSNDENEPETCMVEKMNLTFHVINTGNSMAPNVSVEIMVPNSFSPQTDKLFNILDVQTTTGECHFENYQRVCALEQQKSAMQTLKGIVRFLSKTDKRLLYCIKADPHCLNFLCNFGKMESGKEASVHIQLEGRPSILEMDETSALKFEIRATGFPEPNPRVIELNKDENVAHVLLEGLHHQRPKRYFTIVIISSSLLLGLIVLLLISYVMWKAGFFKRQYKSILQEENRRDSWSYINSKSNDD
T1 sequence (P26010 20-798): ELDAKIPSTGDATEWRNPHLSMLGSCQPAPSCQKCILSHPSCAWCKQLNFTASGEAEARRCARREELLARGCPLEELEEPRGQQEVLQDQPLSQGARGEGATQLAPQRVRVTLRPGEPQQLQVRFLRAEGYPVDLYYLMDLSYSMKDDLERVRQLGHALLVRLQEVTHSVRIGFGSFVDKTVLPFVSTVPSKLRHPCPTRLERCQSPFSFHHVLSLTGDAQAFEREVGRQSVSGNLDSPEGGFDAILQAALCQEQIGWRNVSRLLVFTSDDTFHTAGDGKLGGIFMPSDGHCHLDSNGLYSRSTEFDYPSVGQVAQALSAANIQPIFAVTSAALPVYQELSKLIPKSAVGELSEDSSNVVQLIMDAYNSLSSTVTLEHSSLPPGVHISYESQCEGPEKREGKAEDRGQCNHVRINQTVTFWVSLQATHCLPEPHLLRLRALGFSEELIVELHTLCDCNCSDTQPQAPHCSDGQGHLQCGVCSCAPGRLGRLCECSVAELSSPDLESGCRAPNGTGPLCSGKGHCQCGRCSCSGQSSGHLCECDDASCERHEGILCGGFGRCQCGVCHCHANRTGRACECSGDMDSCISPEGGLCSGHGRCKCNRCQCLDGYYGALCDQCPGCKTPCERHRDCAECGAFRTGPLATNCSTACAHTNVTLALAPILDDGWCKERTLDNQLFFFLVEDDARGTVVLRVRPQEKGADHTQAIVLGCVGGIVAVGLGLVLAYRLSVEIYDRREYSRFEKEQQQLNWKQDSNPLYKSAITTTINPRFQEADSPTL
The experiment is described as follows: α4β7-K562 Cell Adhesion Assay (α4β7 Mediated Adhesion/MAdCAM-1). It counts as cell-based. As to conditions: K562 cells expressing human α4β7 adhering to FLAG-hMAdCAM-1, 1 mM Mn2+. As to the method:
α4β7-K562 Cell Adhesion Assay (α4β7 Mediated Adhesion/MAdCAM-1)
M2 anti-FLAG Antibody Coated 96-well plates (Sigma) were coated for 1 hour at 4° C. with 2-8 μL/well recombinant FLAG-hMAdCAM-1 contained in 100 μL of Dulbecco's PBS, pH 7.4, with 1% BSA and 1 mM Mn^2+ (PBS-BSA-Mn). Plates were washed once with PBS-BSA-Mn. Buffer was removed and compounds to be tested (50 μL) were added at 2× concentration. Stably transfected K562 cells expressing human α4β7 integrin, (50 μL at 2×10^6/mL) that had been labeled with 100 μg/mL carboxymethyl fluorescein diacetate succinimidyl ester (CFDA-SE; Molecular Probes) for 15 min at 37° C. were added to each well and allowed to adhere for 1 h at room temperature. Plates were washed 4× in PBS-BSA-Mn and then cells were lysed for 2 min by addtion of 100 μL of PBS without Ca^2+, Mg^2+ supplemented with 0.1 M NaOH. The plate was read on a 96-well fluorescent plate reader at 485 nm excitation and 530 nm emission.

A further experiment relates to Balb/c mice. Description: In Vivo Model for Leukocytosis. The arrangement: species or system mouse. As to conditions: bled 1-1.5 h after administration. The source says: In Vivo Model for Leukocytosis
Leukocytosis the increase in circulating white blood cells (leukocytes). This can be brought about by preventing leukocyte binding to integrin counter-receptor adhesion molecules expressed on high endothelial venules. This cell adhesion occurs between immunoglobulin superfamily molecules and integrins. Relevant examples of these paired interactions include Intracellular Adhesion Molecule-1 and AlphaL Beta2 integrin, Vascular Cell Adhesion Molecule-1 and α4β1 integrin, and Mucosal Addressin Cell Adhesion Molecule-1 and α4β7 integrin, respectively.
In this model, a compound that antagonizes these leukocyte-endothelial interactions will cause an increase in circulating leukocytes, defined as leukocytosis, as measured at 1-1.5 h post-administration. This leukocytosis is indicative that normal lymphocyte or leukocyte emigration from the peripheral circulation was prevented. Similar emigration of cells out of the circulation into inflamed tissues is responsible for the progression and maintainance of the inflammatory state. Leukocytosis is an indication that lymphocyte and leukocyte extravasation is prevented, and is predictive of general anti-inflammatory activity.
One week prior to being tested, 7-10 week old female Balb/c mice, n=8 per group, were bled and randomized according to leukocyte counts. One week later, the mice were adminstered test compound orally or subcutaneously and then bled 1-1.5 h after drug administration, approximately 1 h after the peak blood concentration of the compound has occurred. Whole blood, 250-350 microliters, was collected from each mouse into potassium-EDTA […] collection tubes (Becton-Dickenson) and mixed to prevent clotting.
Cell counts and differential counts on the whole blood preparation were performed using an Advia 120 Hematology System (Bayer Diagnostics). Cell counts as total leukocytes and as total lympohcytes were made and compared to counts made from mice dosed with vehicle only. Data were reported as percent of vehicle control for lymphocyte counts and total leukocyte counts.
Statistical analyses were performed using ANOVA with Dunnet's multiple comparison test.

The target in another experiment is T2, α4β1 (Homo sapiens, UniProt P05556+P13612).
T2 construct: Ramos cells, (50 μL at 2×10^6/mL) labeled with 5 μM Calcein AM; endogenous in cells; host or cells: Ramos cells
T2 sequence (P05556 21-798, one chain of several): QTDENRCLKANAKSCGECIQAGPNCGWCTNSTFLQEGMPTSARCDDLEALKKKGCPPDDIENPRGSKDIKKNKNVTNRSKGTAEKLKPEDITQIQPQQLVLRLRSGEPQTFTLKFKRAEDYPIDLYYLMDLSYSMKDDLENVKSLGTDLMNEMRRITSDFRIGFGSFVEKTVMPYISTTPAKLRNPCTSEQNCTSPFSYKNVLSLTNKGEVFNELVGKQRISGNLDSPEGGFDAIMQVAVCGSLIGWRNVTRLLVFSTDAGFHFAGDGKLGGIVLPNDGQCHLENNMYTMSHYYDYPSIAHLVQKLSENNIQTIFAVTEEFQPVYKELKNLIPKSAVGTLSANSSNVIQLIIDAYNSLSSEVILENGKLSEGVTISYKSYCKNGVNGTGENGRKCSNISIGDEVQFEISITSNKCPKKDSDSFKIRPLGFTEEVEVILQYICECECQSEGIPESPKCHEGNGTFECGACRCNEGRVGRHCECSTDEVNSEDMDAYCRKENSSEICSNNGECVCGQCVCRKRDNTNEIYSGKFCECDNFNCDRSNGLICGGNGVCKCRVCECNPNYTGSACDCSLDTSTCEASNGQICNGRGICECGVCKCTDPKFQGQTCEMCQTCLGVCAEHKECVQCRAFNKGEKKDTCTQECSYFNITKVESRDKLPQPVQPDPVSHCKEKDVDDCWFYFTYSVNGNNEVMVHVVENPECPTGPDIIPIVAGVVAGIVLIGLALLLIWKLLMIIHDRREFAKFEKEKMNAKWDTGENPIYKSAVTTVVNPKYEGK
Description: Ramos Cell Adhesion Assay (α4β1 Mediated Adhesion/VCAM-1). The class given is cell-based. The conditions noted are these: Ramos cells adhering to recombinant hVCAM-1. As to the method: Ramos Cell Adhesion Assay (α4β1 Mediated Adhesion/VCAM-1)
Immulon 96 well plates (Dynex) were coated with 100 μL recombinant hVCAM-1 at 4.0 μg/mL in 0.05 M NaCO3 buffer pH 9.0 overnight at 4° C. (R&D Systems). Plates were washed 2 times in PBS with 1% BSA and blocked for 1 h@room temperature in this buffer. PBS was removed and compounds to be tested (50 μL) were added at 2× concentration. Ramos cells, (50 μL at 2×10^6/mL) labeled with 5 μM Calcein AM (Molecular Probes) for 1 h at 37° C., were added to each well and allowed to adhere for 1 h at room temperature. Plates were washed 4 × in PBS+1% BSA and cells were lysed for 15 minutes in 100 μL of 1 M Tris pH 8.0 with 1% SDS. The plate was read at 485 nm excitation and 530 nm emission.

Turning to `COc1cnn(C)c(=O)c1-c1ccc(C[C@H](NC(=O)N(C)CC(C)C)C(=O)OCCO)cc1` [Cpd 21, 2-(3-Isobutyl-3-methyl-ureido)-3-[4-(5-methoxy-2-methyl-3-oxo-2,3-dihydro-pyridazin-4-yl)-phenyl]-propionic acid 2-hydroxy-ethyl ester], the IC50 was 2900 nM against human α4β7 integrin and greater than 5000 nM on α4β1. Also, the “Lymphoycte Counts % of Vehicle Control” value in the experiment with Balb/c mice (3 mg/kg po) is reported as 148.1 % of Vehicle Control; in the experiment with Balb/c mice (10 mg/kg po), 156.8 % of Vehicle Control; in the experiment with Balb/c mice (30 mg/kg po), 189.6 % of Vehicle Control. For the same molecule, the “Total Leukocyte Count % of Vehicle Control” value is reported as 121.9 % of Vehicle Control in the experiment with Balb/c mice (3 mg/kg po), 118.7 % of Vehicle Control with Balb/c mice (10 mg/kg po) and 131.0 % of Vehicle Control in the experiment on Balb/c mice (30 mg/kg po).
